# Data from patent publication US20110152362A1, “METHODS OF TREATING EPILEPTOGENESIS AND EPILEPSY” (priority 2004, published 2011).
# Marks after values point to notes of the source that are not given here.
# Tested on: rats subjected to li-pilo SE
# Experiment: Example 2: quantification of cell densities 14 days after li-pilo SE;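 note: Thionine-stained 20 µm brain sections, neurons with cell bodies above 10 µm counted, value is the mean of 12 fields per structure from three adjacent sections, both sides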
# Conditions: 14 days after li-pilo SE
compound,measurement,setting,value
NC(=O)OC[C@@H](O)c1ccccc1Cl [TC],number of neuronal cell bodies: Thalamus Mediodorsal central,pilo-TC30 (TC 30 mg/kg),26.9 ± 0.6
same,number of neuronal cell bodies: Thalamus Mediodorsal lateral,pilo-TC30 (TC 30 mg/kg),20.5 ± 0.7
same,number of neuronal cell bodies: Thalamus Mediodorsal medial,pilo-TC30 (TC 30 mg/kg),11.5 ± 2.5
same,number of neuronal cell bodies: Amygdala Basolateral,pilo-TC60 (TC 60 mg/kg),27.8 ± 4.3**°°
same,"number of neuronal cell bodies: Amygdala Medial, dorsal anterior",pilo-TC60 (TC 60 mg/kg),58.4 ± 2.8**°
same,"number of neuronal cell bodies: Amygdala Medial, ventral posterior",pilo-TC60 (TC 60 mg/kg),26.2 ± 2.9
same,"number of neuronal cell bodies: Cerebral cortex Entorhinal, layer II, dorsal",pilo-TC60 (TC 60 mg/kg),23.9 ± 0.5
same,"number of neuronal cell bodies: Cerebral cortex Entorhinal, layer II, ventral",pilo-TC60 (TC 60 mg/kg),23.3 ± 0.8
same,"number of neuronal cell bodies: Cerebral cortex Entorhinal, layer III/IV, dorsal",pilo-TC60 (TC 60 mg/kg),23.2 ± 0.8
same,"number of neuronal cell bodies: Cerebral cortex Entorhinal, layer III/IV, ventral",pilo-TC60 (TC 60 mg/kg),16.5 ± 2.2
same,"number of neuronal cell bodies: Cerebral cortex Piriform, layer II, dorsal",pilo-TC60 (TC 60 mg/kg),27.5 ± 2.8**°°
same,"number of neuronal cell bodies: Cerebral cortex Piriform, layer II, ventral",pilo-TC60 (TC 60 mg/kg),13.7 ± 4.2
same,"number of neuronal cell bodies: Cerebral cortex Piriform, layer III",pilo-TC60 (TC 60 mg/kg),6.4 ± 2.3
same,number of neuronal cell bodies: Hippocampus CA1 area,pilo-TC60 (TC 60 mg/kg),31.9 ± 44**°°
same,number of neuronal cell bodies: Hippocampus CA3 area,pilo-TC60 (TC 60 mg/kg),31.6 ± 1.4
same,number of neuronal cell bodies: Hippocampus Hilus,pilo-TC60 (TC 60 mg/kg),32.8 ± 3.3
same,number of neuronal cell bodies: Thalamus Central medial,pilo-TC60 (TC 60 mg/kg),83.7 ± 9.6
same,"number of neuronal cell bodies: Thalamus Dorsolateral, medial, dorsal",pilo-TC60 (TC 60 mg/kg),77.5 ± 3.9**°°
same,"number of neuronal cell bodies: Thalamus Dorsolateral, ventral lateral",pilo-TC60 (TC 60 mg/kg),56.7 ± 8.7
same,number of neuronal cell bodies: Thalamus Mediodorsal central,pilo-TC60 (TC 60 mg/kg),24.1 ± 1**^
same,number of neuronal cell bodies: Thalamus Mediodorsal lateral,pilo-TC60 (TC 60 mg/kg),18.9 ± 0.6
same,number of neuronal cell bodies: Thalamus Mediodorsal medial,pilo-TC60 (TC 60 mg/kg),19.1 ± 2.6
same,number of neuronal cell bodies: Amygdala Basolateral,pilo-TC90 (TC 90 mg/kg),40.7 ± 1.6°°
same,"number of neuronal cell bodies: Amygdala Medial, dorsal anterior",pilo-TC90 (TC 90 mg/kg),72.2 ± 5.7°°
same,"number of neuronal cell bodies: Amygdala Medial, ventral posterior",pilo-TC90 (TC 90 mg/kg),30.7 ± 3.7°°
same,"number of neuronal cell bodies: Cerebral cortex Entorhinal, layer II, dorsal",pilo-TC90 (TC 90 mg/kg),26.3 ± 0.9
same,"number of neuronal cell bodies: Cerebral cortex Entorhinal, layer II, ventral",pilo-TC90 (TC 90 mg/kg),25.4 ± 1.1°^
same,"number of neuronal cell bodies: Cerebral cortex Entorhinal, layer III/IV, dorsal",pilo-TC90 (TC 90 mg/kg),26.7 ± 0.8
same,"number of neuronal cell bodies: Cerebral cortex Entorhinal, layer III/IV, ventral",pilo-TC90 (TC 90 mg/kg),23.7 ± 1.5°°
same,"number of neuronal cell bodies: Cerebral cortex Piriform, layer II, dorsal",pilo-TC90 (TC 90 mg/kg),32.4 ± 1.1°°
same,"number of neuronal cell bodies: Cerebral cortex Piriform, layer II, ventral",pilo-TC90 (TC 90 mg/kg),18.4 ± 4.0°°
same,"number of neuronal cell bodies: Cerebral cortex Piriform, layer III",pilo-TC90 (TC 90 mg/kg),9 ± 3.0°°
same,number of neuronal cell bodies: Hippocampus CA1 area,pilo-TC90 (TC 90 mg/kg),47.7 ± 6.6*°
same,number of neuronal cell bodies: Hippocampus CA3 area,pilo-TC90 (TC 90 mg/kg),35.1 ± 2.9
same,number of neuronal cell bodies: Hippocampus Hilus,pilo-TC90 (TC 90 mg/kg),37.5 ± 3.1
same,number of neuronal cell bodies: Thalamus Central medial,pilo-TC90 (TC 90 mg/kg),88.2 ± 8.5^
same,"number of neuronal cell bodies: Thalamus Dorsolateral, medial, dorsal",pilo-TC90 (TC 90 mg/kg),79.4 ± 3.1**°°
same,"number of neuronal cell bodies: Thalamus Dorsolateral, ventral lateral",pilo-TC90 (TC 90 mg/kg),71.8 ± 5.3°°*
same,number of neuronal cell bodies: Thalamus Mediodorsal central,pilo-TC90 (TC 90 mg/kg),27.4 ± 1.5^
same,number of neuronal cell bodies: Thalamus Mediodorsal lateral,pilo-TC90 (TC 90 mg/kg),22 ± 1.2*°
same,number of neuronal cell bodies: Thalamus Mediodorsal medial,pilo-TC90 (TC 90 mg/kg),23.1 ± 2.8°°
same,number of neuronal cell bodies: Amygdala Basolateral,pilo-TC120 (TC 120 mg/kg),42.7 ± 1.3°°
same,"number of neuronal cell bodies: Amygdala Medial, dorsal anterior",pilo-TC120 (TC 120 mg/kg),80.2 ± 2.6°°
same,"number of neuronal cell bodies: Amygdala Medial, ventral posterior",pilo-TC120 (TC 120 mg/kg),34.7 ± 1.7°°
same,"number of neuronal cell bodies: Cerebral cortex Entorhinal, layer II, dorsal",pilo-TC120 (TC 120 mg/kg),27.3 ± 0.5°°
same,"number of neuronal cell bodies: Cerebral cortex Entorhinal, layer II, ventral",pilo-TC120 (TC 120 mg/kg),25.1 ± 0.6^
same,"number of neuronal cell bodies: Cerebral cortex Entorhinal, layer III/IV, dorsal",pilo-TC120 (TC 120 mg/kg),26.4 ± 0.7°°
same,"number of neuronal cell bodies: Cerebral cortex Entorhinal, layer III/IV, ventral",pilo-TC120 (TC 120 mg/kg),24.5 ± 1.4°°
same,"number of neuronal cell bodies: Cerebral cortex Piriform, layer II, dorsal",pilo-TC120 (TC 120 mg/kg),35.2 ± 1.1°°
same,"number of neuronal cell bodies: Cerebral cortex Piriform, layer II, ventral",pilo-TC120 (TC 120 mg/kg),30.5 ± 1.3°°
same,"number of neuronal cell bodies: Cerebral cortex Piriform, layer III",pilo-TC120 (TC 120 mg/kg),15 ± 2.2°°
same,number of neuronal cell bodies: Hippocampus CA1 area,pilo-TC120 (TC 120 mg/kg),65.5 ± 2.9°°
same,number of neuronal cell bodies: Hippocampus CA3 area,pilo-TC120 (TC 120 mg/kg),39.8 ± 1.5
same,number of neuronal cell bodies: Hippocampus Hilus,pilo-TC120 (TC 120 mg/kg),44.8 ± 2.9
same,number of neuronal cell bodies: Thalamus Central medial,pilo-TC120 (TC 120 mg/kg),108.2 ± 6.6° ^
same,"number of neuronal cell bodies: Thalamus Dorsolateral, medial, dorsal",pilo-TC120 (TC 120 mg/kg),89.8 ± 3.7*°
same,"number of neuronal cell bodies: Thalamus Dorsolateral, ventral lateral",pilo-TC120 (TC 120 mg/kg),79.0 ± 4.7°°
same,number of neuronal cell bodies: Thalamus Mediodorsal central,pilo-TC120 (TC 120 mg/kg),29.9 ± 1.7°^
same,number of neuronal cell bodies: Thalamus Mediodorsal lateral,pilo-TC120 (TC 120 mg/kg),24.4 ± 1.1°°
same,number of neuronal cell bodies: Thalamus Mediodorsal medial,pilo-TC120 (TC 120 mg/kg),28.6 ± 0.8°°
